# Molecular target: T1, human PD-L1 / human PD-1 interaction (Homo sapiens, UniProt Q9NZQ7)
# T1 construct: purchased R&D (PD-L1); ACRO Biosystems (PD-1, biotin)
# Assay: ELISA of PD-1/PD-L1 interaction
# Format: binding
# Experimental: The activity of Compound 1.041 was assessed with an ELISA assay assessing the direct binding of recombinant PD-1 and PD-L1 proteins (FIG. 1A), a dimerization ELISA assay assessing the direct binding/dimerization of recombinant PD-L1 proteins (FIG. 1B), a cell based assay measuring the downstream signaling following the interaction of PD-1 and PD-L1 using a Luciferase reporter assay with cell lines overexpressing PD-1 and PD-L1 (FIG. 1C), and a mixed lymphocyte reaction assay measuring the functional outcome of upregulation of IFNg secretion, using allogenic primary human immune cells (FIG. 1D). Briefly, the mixed lymophocyte reaction assay was performed as follows: Dendritic cells and CD4+T Cells from unmatched donors were cultured together for 5 days in 96 well-flat bottom plates. Test compound was added as indicated at starting concentration of 1 μM with 1:4 dilutions with DMSO. Supernatants were harvested after 5 days of incubation and detection of human IFNg was performed by ELISA. […]
# 96 Well plates were coated with 1 μg/mL of human PD-L1 (obtained from R&D) in
# PBS overnight at 4° C. The wells were then blocked with 2% BSA in PBS (WN) with 0.05% TWEEN-20 for 1 hour at 37° C. The plates were washed 3 times with PBS/0.05% TWEEN-20 and the compounds were serial diluted (1:5) in dilution medium and added to the ELISA plates. Human PD-1 and biotin 0.3μg/mL (ACRO Biosystems) were added and incubated for 1 hour at 37° C. then washed 3 times with PBS/0.05% TWEEN-20. A second block was performed with 2% BSA in PBS (WN)/0.05% TWEEN-20 for 10 min at 37° C. and was washed 3 times with PBS/0.05% TWEEN-20. Streptavidin—HRP was added for 1 hour at 37° C. then washed 3 times with PBS/0.05% TWEEN-20. TMB substrate was added and reacted for 20 min at 37° C. A stop solution (2 N aqueous H2SO4) was added. The absorbance was read at 450 nm using a micro-plate spectrophotometer.
# T1 sequence (Q9NZQ7 19-239 limits assumed): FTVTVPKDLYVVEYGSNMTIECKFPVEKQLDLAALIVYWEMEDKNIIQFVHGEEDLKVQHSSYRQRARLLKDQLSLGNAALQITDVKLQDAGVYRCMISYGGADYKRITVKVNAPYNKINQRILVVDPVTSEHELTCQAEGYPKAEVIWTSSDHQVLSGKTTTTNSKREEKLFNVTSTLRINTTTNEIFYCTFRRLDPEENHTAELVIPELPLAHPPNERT
row,Compound,IC50 [nM]
1,CC(C)N1CCC(COc2cccc(-c3cccc4c3CC[C@@H]4Oc3cc(OCc4cncc(C#N)c4)c(CNC[C@@H]4CCC(=O)N4)cc3Cl)c2Cl)C1 (some centres unmarked),< 5
2,CCCC(CO)(NCc1cc(Cl)c(O[C@H]2CCc3c(-c4cccc(OCCCN5CC(O)C5)c4Cl)cccc32)cc1OCc1cncc(C#N)c1)C(=O)O (some centres unmarked),< 5
3,Cc1c(OCCCN2CCC[C@H]2CO)cccc1-c1cccc2c1CC[C@@H]2Oc1cc(OCc2cncc(C#N)c2)c(CN[C@H](C(=O)O)[C@@H](C)O)cc1Cl,< 5
4,Cc1c(OCCCN2CCC(F)CC2)cccc1-c1cccc2c1CC[C@@H]2Oc1cc(OCc2cc(C#N)cc(C#N)c2)c(CN[C@@H]2CCOC[C@H]2O)cc1Cl,< 5
5,Cc1c(OCCCN2CCC[C@@H](O)C2)cccc1-c1cccc2c1CC[C@@H]2Oc1cc(OCc2cncc(C#N)c2)c(CN[C@H](C(=O)O)[C@@H](C)O)cc1Cl,< 5
6,C[C@@](CO)(NCc1cc(Cl)c(O[C@H]2CCc3c(-c4cccc(OCCCN)c4Cl)cccc32)cc1OCc1cncc(C#N)c1)C(=O)O,< 5
7,Cc1c(OCCCN2C(C)CC2C)cccc1-c1cccc2c1CC[C@@H]2Oc1cc(OCc2cc(C#N)cc(C#N)c2)c(CN[C@H]2CCC(=O)NC2)cc1Cl (some centres unmarked),< 5
8,CCOc1cc(O[C@H]2CCc3c(-c4cccc(OCCCN5CC(O)C5)c4Cl)cccc32)c(Cl)cc1CN[C@@](C)(CO)C(=O)O,< 5
9,CCOc1cc(O[C@H]2CCc3c(-c4cccc(OCCCN5CCC5(C)C)c4C)cccc32)c(Cl)cc1CN(C)CCCC(=O)O,< 5
10,CCOc1cc(O[C@H]2CCc3c(-c4cccc(OCCCN(C)C(C)(C)C)c4C)cccc32)c(Cl)cc1CNC[C@@H]1CCC(=O)N1,< 5
11,Cc1c(OCCCN2CCC(O)CC2)cccc1-c1cccc2c1CC[C@@H]2Oc1cc(OCc2cncc(C#N)c2)c(CNCc2cn(C)cn2)cc1Cl,< 5
12,C[C@@](CO)(NCc1cc(Cl)c(O[C@H]2CCc3c(-c4cccc(OCCCN5CCC(O)CC5)c4Cl)cccc32)cc1OCc1cncc(C#N)c1)C(=O)O,< 5
13,N#Cc1cncc(COc2cc(O[C@H]3CCc4c(-c5cccc(OCCCN6CCC(O)CC6)c5Cl)cccc43)c(Cl)cc2CNC(CO)CO)c1,< 5
14,N#Cc1cncc(COc2cc(O[C@H]3CCc4c(-c5cccc(OCCCN6CCC(O)CC6)c5Cl)cccc43)c(Cl)cc2CN[C@@H]2CCCC[C@@H]2O)c1,< 5
15,Cc1c(OCCCN2CCC(O)CC2)cccc1-c1cccc2c1CC[C@H]2Oc1cc(OCc2cncc(C#N)c2)c(CN[C@H](C(=O)O)[C@@H](C)O)cc1Cl,< 5
16,CCOc1cc(O[C@H]2CCc3c(-c4cccc(OCCCN5CCC(O)CC5)c4C)cccc32)c(Cl)cc1CN[C@H](C(=O)O)[C@@H](C)O,< 5
17,CC1(F)CCN(CCCOc2cccc(-c3cccc4c3CC[C@@H]4Oc3cc(OCc4cncc(C#N)c4)c(CNC[C@@H]4CCC(=O)N4)cc3Cl)c2Cl)CC1,< 5
18,CCOc1cc(O[C@H]2CCc3c(-c4cccc(OCCCN5CCC5(C)C)c4C)cccc32)c(Cl)cc1CNCCC(=O)OC(C)C,5 to 500
19,N#Cc1cncc(COc2cc(O[C@H]3CCc4c(-c5cccc(OCCCN6CC(F)C6)c5Cl)cccc43)c(Cl)cc2CN[C@@H]2CCCC[C@@H]2O)c1,< 5
20,Cc1c(OCCCN2CCCCC2)cccc1-c1cccc2c1CC[C@@H]2Oc1cc(OCc2cncc(C#N)c2)c(CNC[C@H]2CCC(=O)N2)cc1Cl,< 5
21,Cc1c(OCCCN2CC(F)C2)cccc1-c1cccc2c1CC[C@@H]2Oc1cc(OCc2cncc(C#N)c2)c(CNCC2CCC(=O)N2)cc1Cl (some centres unmarked),< 5
22,CCOc1cc(O[C@H]2CCc3c(-c4cccc(OCCCN5C(C)CC5C)c4C)cccc32)c(Cl)cc1CNC[C@@H]1CCC(=O)N1 (some centres unmarked),< 5
23,N#Cc1cncc(COc2cc(O[C@H]3CCc4c(-c5cccc(OCCCN6CCC6)c5Cl)cccc43)c(Cl)cc2CNC[C@@H]2CCC(=O)N2)c1,< 5
24,N#Cc1cncc(COc2cc(O[C@H]3CCc4c(-c5cccc(OCCCN6CCC(F)CC6)c5Cl)cccc43)c(Cl)cc2CN2CC(C(=O)O)C2)c1,< 5
25,N#Cc1cncc(COc2cc(O[C@H]3CCc4c(-c5cccc(OCCCN6CC[C@H](F)C6)c5Cl)cccc43)c(Cl)cc2CN[C@@H]2CCCC[C@@H]2O)c1,< 5
26,C[C@@H](O)[C@H](NCc1cc(Cl)c(O[C@H]2CCc3c(-c4cccc(OCCCN5CC(O)C5)c4Cl)cccc32)cc1OCc1cncc(C#N)c1)C(N)=O,< 5
27,Cc1c(OCCCN2CCC(F)CC2)cccc1-c1cccc2c1CC[C@@H]2Oc1cc(OCc2cc(C#N)cc(C#N)c2)c(CNC[C@@H]2CCC(=O)N2)cc1Cl,< 5

row,Compound,IC50 [nM]
1,N#Cc1cc(C#N)cc(COc2cc(O[C@@H]3c4cccc(-c5cccc(OCCCN6CC(O)C6)c5Cl)c4C[C@@H]3F)c(Cl)cc2CNC[C@H]2CCC(=O)N2)c1,< 5
2,Cc1c(OCCCN2CCC(O)CC2)cccc1-c1cccc2c1CC[C@@H]2Oc1cc(OCc2cc(C#N)cc(C#N)c2)c(CN[C@@H]2CCCC[C@@H]2O)cc1Cl,< 5
3,N#Cc1cncc(COc2cc(O[C@H]3CCc4c(-c5cccc(OCCCN6CCC(F)CC6)c5Cl)cccc43)c(Cl)cc2CNC[C@@H]2CCC(=O)N2)c1,< 5
4,CC(C)(O)CNCc1cc(Cl)c(O[C@H]2CCc3c(-c4cccc(OCCCN5CC(O)C5)c4Cl)cccc32)cc1OCc1cncc(C#N)c1,< 5
5,Cc1c(OCCCN2CCC(F)CC2)cccc1-c1cccc2c1CC[C@@H]2Oc1cc(OCc2cc(C#N)cc(C#N)c2)c(CN[C@H]2CCOC[C@H]2O)cc1Cl,< 5
6,Cc1c(OCCCNC[C@@H](O)CO)cccc1-c1cccc2c1CC[C@@H]2Oc1cc(OCc2cncc(C#N)c2)c(CN[C@H](C(=O)O)[C@@H](C)O)cc1Cl,< 5
7,Cc1c(OCCCN2CCC(F)CC2)cccc1-c1cccc2c1CC[C@@H]2Oc1cc(OCc2cncc(C#N)c2)c(CN[C@H](C(=O)O)[C@@H](C)O)cc1Cl,< 5
8,N#Cc1cncc(COc2cc(O[C@H]3CCc4c(-c5cccc(OCCCN6CC7(C6)CC(F)(F)C7)c5Cl)cccc43)c(Cl)cc2CN[C@@H]2CCC[C@H]2O)c1,< 5
9,CCOc1cc(O[C@H]2CCc3c(-c4cccc(OCCCN5CCC5(C)C)c4C)cccc32)c(Cl)cc1CN(C)CC(=O)O,5 to 500
10,CCOC(=O)[C@](C)(CO)NCc1cc(Cl)c(O[C@H]2CCc3c(-c4cccc(OCCCN5CC(O)C5)c4Cl)cccc32)cc1OCc1cncc(C#N)c1,< 5
11,Cc1c(OCCCN2CCC(O)CC2)cccc1-c1cccc2c1CC[C@@H]2Oc1cc(OCc2cncc(C#N)c2)c(CN[C@H](C(=O)O)[C@@H](C)O)cc1Cl,< 5
12,Cc1c(OCCCNCC(C)(C)O)cccc1-c1cccc2c1CC[C@@H]2Oc1cc(OCc2cncc(C#N)c2)c(CNCC2CCC(=O)N2)cc1Cl (some centres unmarked),< 5
13,Cc1c(OCCCN2CCC(O)CC2)cccc1-c1cccc2c1CC[C@@H]2Oc1cc(OCc2cncc(C#N)c2)c(CN(C)[C@H](C(=O)O)[C@@H](C)O)cc1Cl,< 5
14,Cc1c(OCCCN2CCC[C@H](O)C2)cccc1-c1cccc2c1CC[C@@H]2Oc1cc(OCc2cncc(C#N)c2)c(CN[C@H](C(=O)O)[C@@H](C)O)cc1Cl,< 5
15,CC(CO)(CO)NCc1cc(Cl)c(O[C@H]2CCc3c(-c4cccc(OCCCN5CCNC(=O)C5)c4Cl)cccc32)cc1OCc1cncc(C#N)c1,< 5
16,N#Cc1cncc(COc2cc(O[C@H]3CCc4c(-c5cccc(OCCCN6CCNC(=O)C6)c5Cl)cccc43)c(Cl)cc2CNC2(C(=O)O)CCC2)c1,< 5
17,Cc1c(OCCCN2CCCC2)cccc1-c1cccc2c1CC[C@@H]2Oc1cc(OCc2cc(C#N)cc(C#N)c2)c(CN[C@H]2CCC(=O)NC2)cc1Cl,< 5
18,CCOc1cc(O[C@H]2CCc3c(-c4cccc(OCCCN5CCC(F)CC5)c4C)cccc32)c(Cl)cc1CN[C@@H](CO)C(=O)O,< 5
19,CC(CO)(NCc1cc(Cl)c(O[C@H]2CCc3c(-c4cccc(OCCCN5CC6(CC(F)C6)C5)c4Cl)cccc32)cc1OCc1cncc(C#N)c1)C(=O)O (some centres unmarked),< 5
20,N#Cc1cncc(COc2cc(O[C@H]3CCc4c(-c5cccc(OCCCN6CC7(C6)CC(F)(F)C7)c5Cl)cccc43)c(Cl)cc2CN[C@H]2CCC[C@H]2O)c1,< 5
21,N#Cc1cncc(COc2cc(O[C@H]3CCc4c(-c5cccc(OCCCN6CC7(CC(O)C7)C6)c5Cl)cccc43)c(Cl)cc2CN[C@H]2CCC[C@H]2O)c1,< 5
22,N#Cc1cncc(COc2cc(O[C@H]3CCc4c(-c5cccc(OCCCN6CCC(F)CC6)c5Cl)cccc43)c(Cl)cc2CN[C@@H]2CCOC[C@@H]2O)c1,< 5
23,N#Cc1cncc(COc2cc(O[C@H]3CCc4c(-c5cccc(OCCCN6CCC(F)CC6)c5Cl)cccc43)c(Cl)cc2CN[C@@H]2CCOC[C@H]2O)c1,< 5
24,CCOc1cc(O[C@H]2CCc3c(-c4cccc(OCCCN5CC[C@@H](O)C5)c4C)cccc32)c(Cl)cc1CN[C@@H](CO)C(=O)O,< 5
25,N#Cc1cncc(COc2cc(O[C@H]3CCc4c(-c5cccc(OCCCN6CCC(F)CC6)c5Cl)cccc43)c(Cl)cc2CN[C@@H]2CCCC[C@@H]2O)c1,< 5
26,Cc1c(OCCCN2CC(O)C2)cccc1-c1cccc2c1CC[C@@H]2Oc1cc(OCc2cncc(C#N)c2)c(CN[C@H](C(=O)O)[C@@H](C)O)cc1Cl,< 5

# From US20210236476A1, “METHODS OF TREATING CANCER WITH SMALL MOLECULE PD-L1 INHIBITORS” (CHEMOCENTRYX, INC., priority 2018, published 2021)
